From ChEMBL document CHEMBL3046756, “Synthesis, anti-inflammatory, and structure antioxidant activity relationship of novel 4-quinazoline” (Med Chem Res, 2013)

Key:
Mus musculus [1] = experiment: Toxicity in albino Mus musculus (mouse) assessed as rapid respiration at 150 to 900 mg/kg, ip measured within 1 to 2 hr; format: organism-based; design: route intraperitoneal; settings: in vivo
Mus musculus [2] = experiment: Toxicity in albino Mus musculus (mouse) assessed as increase in heart rate at 150 to 900 mg/kg, ip measured within 1 to 2 hr; format: organism-based; design: route intraperitoneal; settings: in vivo
Mus musculus [3] = experiment: Toxicity in albino Mus musculus (mouse) assessed as change in temperature at extremities at 150 to 900 mg/kg, ip measured within 24 hr; format: organism-based; design: dose 150-900 mg/kg, route intraperitoneal; settings: in vivo
Mus musculus [4] = experiment: Toxicity in albino Mus musculus (mouse) assessed as change in eye color at 150 to 900 mg/kg, ip measured within 24 hr; format: organism-based; design: dose 150-900 mg/kg, route intraperitoneal; settings: in vivo
Mus musculus [5] = experiment: Toxicity in albino Mus musculus (mouse) assessed as tremor in hind limbs at 150 to 900 mg/kg, ip measured within 24 hr; format: organism-based, Hindlimb; design: dose 150-900 mg/kg, route intraperitoneal; settings: in vivo
[6] = Antioxidant activity assessed as Fe2+ chelating activity at 1.25 mg/ml after 90 min by spectrophotometric analysis; format: functional
Mus musculus [7] = experiment: Toxicity in albino Mus musculus (mouse) assessed as change in eye color at 650 to 1800 mg/kg, ip measured within 24 hr; format: organism-based; design: dose 650-1800 mg/kg, route intraperitoneal; settings: in vivo
Mus musculus [8] = experiment: Toxicity in albino Mus musculus (mouse) assessed as change in skin color at 650 to 1800 mg/kg, ip measured within 24 hr; format: organism-based; design: dose 650-1800 mg/kg, route intraperitoneal; settings: in vivo

SMILES: O=c1c2ccccc2nc2n1NC(c1ccc(O)c(O)c1)C2 (stereo not drawn)
- Activity (Mus musculus [1]): Toxic
- Activity (Mus musculus [2]): Toxic
- Activity (Mus musculus [3]): Toxic
- Activity (Mus musculus [4]): Toxic
- Activity (Mus musculus [5]): Toxic

SMILES: COC(=O)c1ccccc1NC(=O)/C=C/c1ccc(O)c(O)c1
- Activity [6]: 30%
- Activity (Mus musculus [7]): Toxic
- Activity (Mus musculus [8]): Toxic
